Results taken from article PMC9856044 (Biomolecules, 2023).
Counter-ions that a name gives are not always drawn. One block for each molecule: values may come before it.

Legend:
[1] = test system: poly A–poly U (AU-RNA) (RNA, polymer) A/U; experiment: CD titration (ICD); settings: Na+ (sodium cacodylate, I = 0.05 M), pH 7.0, 25 °C
[2] = test system: Tel22 (DNA, G4) AGGGTTAGGGTTAGGGTTAGGG; experiment: UV thermal melting, 260 nm; settings: pH 7.0, Tel22 2 µM, r = 1.0 (compound 2 µM)
[3] = test system: Tel22 (DNA, G4) AGGGTTAGGGTTAGGGTTAGGG; experiment: fluorescence titration (SPECFIT); settings: pH 7.0, 25 °C; for logKa: K+ (potassium phosphate, I = 0.1 M); for logKa1: Na+ (sodium cacodylate, I = 0.1 M)
[4] = test system: poly(dAdT)2 (AT-DNA) (DNA, polymer) AT; experiment: CD titration (ICD); settings: Na+ (sodium cacodylate, I = 0.05 M), pH 7.0, 25 °C
[5] = test system: poly(dGdC)2 (GC-DNA) (DNA, polymer) GC; experiment: CD titration (ICD); settings: Na+ (sodium cacodylate, I = 0.05 M), pH 7.0, 25 °C
[6] = test system: poly(dAdT)2 (AT-DNA) (DNA, polymer) AT; experiment: UV thermal melting, 260 nm; settings: Na+ (sodium cacodylate, I = 0.05 M); pH 7.0; r [compound]/[nucleotide phosphate] = 0.1; per base
Tel22 G-quadruplex [7] = experiment: Thermal melting of Tel22 in sodium cacodylate buffer; assay type: binding, human; settings: Tel22, r = 1.0, sodium cacodylate buffer, pH = 7.0, I = 0.1 mol dm^−3; error ± 0.5 °C
Method: (§1) Thermal melting curves for DNA, RNA and their complexes with studied compounds were determined as previously described by following the absorption change at 260 nm as a function of temperature. The absorbance of the ligands was subtracted from every curve and the absorbance scale was normalized. Tm values are the midpoints of the transition curves determined from the maximum of the first derivative and checked graphically by the tangent method. The ∆Tm values were calculated by subtracting Tm of the free nucleic acid from Tm of the complex. Every ∆Tm value here reported was the average of two measurements. The error in ∆Tm is ±0.5 °C. 5′-AGGG(TTAGGG)3–3′(Tel22) was obtained from IDT (Integrated DNA Technologies, Coralville, IA, USA). Tel22 was dissolved in 0.1 M either in sodium cacodylate or potassium phosphate buffer. The starting Tel22 oligonucleotide solution was first heated up to 95 °C for 10 min, then slowly cooled to 10 °C at the cooling rate of 1 °C/min to allow DNA oligonucleotide to adopt a G-quadruplex structure. The G-quadruplex structure was confirmed by thermal melting and CD spectra. The concentration of G quadruplex was expressed in terms of oligonucleotide structure. In fluorimetric titrations, aliquots of Tel 22 solution were added to the solution of ligands (c ~ 2 × 10^−7 M, in SI).

[8] = Solubility and aggregation (UV/Vis characterization); assay type: physicochemical; settings: for Aggregation in aqueous buffer: sodium cacodylate buffer, I = 0.05 mol dm^−3, pH = 7.0, UV/Vis
Method: The UV/vis spectra were recorded on a Varian Cary 100 Bio spectrophotometer (Agilent, Santa Clara, CA, USA), CD spectra on JASCO J815 spectrophotometer (ABL&E Handels GmbH, Wien, Austria) and fluorescence spectra on a Varian Cary Eclipse spectrophotometer (Agilent, Santa Clara, CA, USA) at 25 °C using appropriate 1 cm path quartz cuvettes.
Studied compounds, 1–6 were soluble (c = 8 × 10^−4 mol dm^−3) in DMSO. […] Therefore, the stock solution of 2 was prepared fresh before use. The experiments were done in aqueous buffer (sodium cacodylate buffer, I = 0.05 mol dm^−3; pH = 7.0).
However, the shape of UV/Vis spectra of cyanine 2 changed with increasing concentration (calibration experiment in Figure S2 in SI). In addition to the dominant maximum at 432 nm (which most likely corresponds to the monomer form of the dye), the absorption band at 413 nm becomes more intense (Figure S2 in SI). Presumably, it corresponds to the aggregated form (H-aggregate). Based on the existence of an absorption band at 432 nm, only the monomer dye form is visible at high temperature (95 °C) (Figure S8b in SI). However, after cooling the solution to 25 °C, an additional band appears at 413 nm, which corresponds to the aggregated dye form.

Fibroblasts = experiment: MTT cytotoxicity assay, normal human skin fibroblasts; assay type: cell-based; settings: Fibroblast, 72 h incubation, ± SD
Method: (§2) Human cervical carcinoma HeLa (GIBCO BRL, Invitrogen, Waltham, MA, USA), human melanoma MDA-MB-435S and human ovarian adenocarcinoma SK-OV-3 (ATCC-LGC Standards GmbH, Wesel, Germany) cell lines were purchased from indicated cell culture banks. Normal human skin fibroblasts were isolated from the upper arm of a donor at the Neurochemical Laboratory, Department of Chemistry and Biochemistry, School of Medicine, University of Zagreb. HeLa, MDA-MB-435S and fibroblasts were grown in Dulbecco’s Modified Eagle’s Medium (DMEM; Sigma-Aldrich, St. Louis, MI, USA) while the SK-OV-3 cell line was grown in McCoy’s 5A medium (Capricorn Scientific, Ebsdorfergrund, Germany). All media were supplemented with 10% fetal bovine serum (FBS; Sigma-Aldrich) and 50 I.U./mL penicillin and 50 μg/mL streptomycin. Cells were cultured in a humidified atmosphere of 5% CO2 at 37 °C and were sub-cultured every 3–4 days. HeLa, MDA-MB-435S, SK-OV-3 cells and fibroblasts were seeded in 96 well plates. Twenty-four hours later the cells were treated, in quadruplicate, with different concentrations of compounds (dissolved in DMSO, kept at 4 °C and protected from light). Following 72 h of incubation at 37 °C, the medium was aspired and modified 3-(4,5-dimethylthiazol-2-yl)-2,5-diphenyltetrazolium bromide (MTT) assay was used to determine the cytotoxic effect of the tested compounds. Three hours later, formazan crystals were dissolved in DMSO (0.17 mL/well), the plates were mechanically agitated for 20 min and the optical density at 600 nm was determined on a microtiter plate reader (Awareness Technology Inc., Palm City, FL, USA). The experiments were repeated three times.

HeLa cells = experiment: MTT cytotoxicity assay, HeLa; assay type: cell-based; settings: Homo sapiens, 72 h incubation, ± SD
Method: as §2

[9] = molecular target: Tel22 (5′-AGGG(TTAGGG)3–3′) G-quadruplex; experiment: Fluorimetric titration with Tel22 in potassium phosphate buffer (K+ solution); assay type: binding, human; settings: Tel22, potassium phosphate buffer, pH = 7.0, I = 0.1 mol dm^−3; SPECFIT fit
Method: (§3) Materials. Polynucleotides were purchased as noted: poly A–poly U, calf thymus ctDNA, poly(dAdT)2 and poly(dGdC)2 (Sigma-Aldrich, St. Louis, MI, USA). Polynucleotides were dissolved in Na-cacodylate buffer, I = 0.05 mol dm^−3, pH = 7.0. The calf thymus ctDNA was additionally sonicated and filtered through a […]. Polynucleotide concentration was determined spectroscopically as the concentration of phosphates. Spectrophotometric titrations were performed at pH = 7.0 (I = 0.05 mol dm^−3, sodium cacodylate buffer) by adding aliquots of polynucleotide solution into the solution of the studied compound for fluorimetric experiments and CD experiments were done by adding aliquots of the compound stock solution into the solution of a polynucleotide. In fluorimetric experiments, an excitation wavelength of λexc = 425, 431, 423, 427, 406 and 407 nm, respectively, was used to avoid the inner filter effect caused due to increasing absorbance of the polynucleotide. Emission was collected in the range λem = 400–700 nm. Values for Ka obtained by processing titration data using the Scatchard equation [27], all have satisfactory correlation coefficients (≥0.98).
as §1
(§4) Binding constants (log Ka) and stoichiometry of complexes were calculated from the fluorimetric data using non-linear least-square program SPECFIT [46], in the concentration range that corresponded to 20–80% complex formed.

[10] = molecular target: Tel22 (5′-AGGG(TTAGGG)3–3′) G-quadruplex; experiment: Fluorimetric titration with Tel22 in sodium cacodylate buffer (Na+ solution); assay type: binding, human
Method: as §3, §1, §4

Tel22 G-quadruplex [11] = experiment: Thermal melting of Tel22 in potassium phosphate buffer; assay type: binding, human; settings: Tel22, r = 1.0, potassium phosphate buffer, pH = 7.0, I = 0.1 mol dm^−3; error ±0.5 °C
Method: as §1

SK-OV-3 cells = experiment: MTT cytotoxicity assay, SK-OV-3; assay type: cell-based; settings: Homo sapiens, SK-OV-3, 72 h incubation, ± SD
Method: as §2

MDA-MB-435S cells = experiment: MTT cytotoxicity assay, MDA-MB-435S; assay type: cell-based; settings: Homo sapiens, 72 h incubation, ± SD
Method: as §2

[12] = K+ (potassium phosphate, I = 0.1 M)
[13] = Na+ (sodium cacodylate, I = 0.1 M)

binding ([1]; bisignate ICD +405/−385 nm): yes | ∆Tm [2, 12]: 3.2 °C | ∆Tm [2, 13]: 2.1 °C | logKa [3]: 7.78 ± 0.18 | logKa1 [3]: 6.19 ± 0.01 | binding ([4]; positive ICD at 440 nm): yes | binding ([5]; bisignate ICD +440/−410 nm): yes
Structure (SMILES): CN1C(=Cc2[se]c3ccccc3[n+]2C)Sc2cc(Cl)ccc21

binding ([1]; bisignate ICD +405/−385 nm): yes | ∆Tm [2, 12]: 0.5 °C | ∆Tm [2, 13]: 0.5 °C | logKa [3]: 6.88 ± 0.05 | logKa1 ([3]; site 1 of 2): 7.26 ± 0.41 | binding ([4]; positive ICD at 440 nm): yes
Structure (SMILES): CN1C(=Cc2[se]c3ccccc3[n+]2C)Sc2ccccc21

∆Tm [2, 12]: 5.1 °C | ∆Tm [2, 13]: 2.1 °C | ∆Tm [6]: 4 °C
Structure (SMILES): C[n+]1c(C=C2Sc3ccccc3N2CCCS)[se]c2ccccc21

binding ([1]; bisignate ICD): yes | ∆Tm [2, 12]: 6.9 °C | ∆Tm [2, 13]: 2.0 °C | binding ([4]; bisignate ICD +440/−400 nm): yes | binding ([5]; bisignate ICD +440/−400 nm): yes
Structure (SMILES): C[n+]1c(C=C2Sc3ccccc3N2CCS)[se]c2ccccc21

Structure (SMILES): CN1/C(=C/c2[se]c3ccccc3[n+]2C)Sc2ccccc21 (as salt: sulphate) [Compound 3, 3-methyl-2-((3-methylbenzo[d]thiazol-2(3H)-ylidene)methyl)benzo[d][1,3]selenazol-3-ium methosulphate]
melting point: > 300 °C

Structure (SMILES): CN1/C(=C/c2[se]c3ccccc3[n+]2C)Sc2cc(Cl)ccc21 (as salt: sulphate) [Compound 4, 2-((6-chloro-3-methylbenzo[d]thiazol-2(3H)-ylidene)methyl)-3-methylbenzo[d][1,3]selenazol-3-ium methosulphate]
melting point: > 300 °C

Structure (SMILES): C[n+]1c(/C=C2\Sc3ccccc3N2CCCS)[se]c2ccccc21 (as salt: sulphate) [Compound 5, 2-((3-(3-mercaptopropyl)benzo[d]thiazol-2(3H)-ylidene)methyl)-3-methylbenzo[d][1,3]selenazol-3-ium methosulphate]
melting point: 233 to 236 °C

Structure (SMILES): C[n+]1c(/C=C2\Sc3ccccc3N2CCS)[se]c2ccccc21 (as salt: sulphate) [Compound 6, 2-((3-(2-mercaptoethyl)benzo[d]thiazol-2(3H)-ylidene)methyl)-3-methylbenzo[d][1,3]selenazol-3-ium methosulphate]
melting point: 245 to 247 °C

Structure (SMILES): COc1ccc2c(c1)SC(=Cc1[se]c3ccccc3[n+]1C)N2CCCS(=O)(=O)[O-] [Compound 2, 3-(6-methoxy-2-((3-methylbenzo[d][1,3]selenazol-3-ium-2-yl)methylene)benzo[d]thiazol-3(2H)-yl)propane-1-sulfonate]
melting point: > 300 °C | ∆Tm [2, 13]: 0 °C | ∆Tm (Tel22 G-quadruplex [7]): 0 °C | Aggregation in DMSO stock solution ([8]; DMSO, after several weeks): prone to aggregation | Aggregation in aqueous buffer [8]: mixture of monomer and aggregated form

Structure (SMILES): CN1/C(=C/c2[se]c3ccccc3[n+]2C)Sc2cc(Cl)ccc21 [Compound 4, 2-((6-chloro-3-methylbenzo[d]thiazol-2(3H)-ylidene)methyl)-3-methylbenzo[d][1,3]selenazol-3-ium methosulphate]
IC50 (Fibroblasts): > 2500 nM | IC50 (HeLa cells): 793 ± 157 nM | logKa (L + G ⇆ LG, 1:1 complex) [9]: 7.78 ± 0.18 | logKa1 (L + G ⇆ LG) ([10]; Tel22, sodium cacodylate buffer, pH = 7.0, I = 0.1 mol dm^−3, SPECFIT fit of fluorescence titration): 6.19 ± 0.01 | Selectivity for G-quadruplex over duplex DNA ([10]; binding affinities Tel22 vs duplex DNA, in both the Na+ and K+ solutions): 100 fold | ∆Tm (Tel22 G-quadruplex [11]): 3.2 °C | ∆Tm (Tel22 G-quadruplex [7]): 2.1 °C | IC50 (SK-OV-3 cells): 1320 ± 125 nM | Aggregation in aqueous buffer [8]: do not form aggregates | IC50 (MDA-MB-435S cells): 614 ± 77.6 nM
